Test results reported in US8026410B2 (priority 2003, dated 2011).

What was measured:
[1] = test system: Tobacco seeds germinated on MS medium containing DAS; parameters: species or system Nicotiana tabacum; conditions: in vivo
[2] = test system: wheat; conditions: in vivo; cited from earlier work
[3] = test system: Tobacco seeds germinated on MS medium containing DON; parameters: species or system Nicotiana tabacum; conditions: in vivo
[4] = test system: Phytophthora infestans, Colletotrichum coccodes, fusarium solani, fusarium sulphureum, Phoma foreata and Rhizoctonia solani; conditions: cited from earlier work
[5] = test system: transgenic tobacco plants; conditions: in vivo; cited from earlier work

4,15-diacetoxyscirpenol [DAS]
lowest concentration that would give the best inhibition of wild type tobacco seed growth [1]: 1 µM

CC1=C[C@H]2O[C@@H]3[C@H](O)C[C@](C)([C@@]2(CO)[C@H](O)C1=O)[C@]31CO1 [DON, Deoxynivalenol]
inhibition toward wheat [2]: far more inhibitory than DAS | lowest concentration that would give the best inhibition of wild type tobacco seed growth [3]: 10 µM

B1: PAP: 29-kDa ribosome inactivating protein (protein)
chain: VNTIIYNVGSTTISKYATFLNDLRNEAKDPSLKCYGIPMLPNTNTNPKYVLVELQGSNKKTITLMLRRNNLYVMGYSDPFETNKCRYHIFNDISGTERQDVETTLCPNANSRVSKNINFDSRYPTLESKAGVKSRSQVQLGIQILDSNIGKISGVMSFTEKTEAEFLLVAIQMVSEAARFKYIENQVKTNFNRAFNPNPKVLNLQETWGKISTAIHDAKNGVLPKPLELVDASGAKWIVLRVDEIKPDVALLNYVGGSCQTTY
effect on growth of fungi in vitro [4]: no effect on the growth | phenotype of PAP-expressing tobacco plants [5]: stunted, mottled phenotype
